The record followed here is ChEMBL document CHEMBL1201862, “PubChem BioAssay data set” (2004).

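Test compounds were applied to cells in 96-well plates for 48 hours at 5 doses. Abbreviation: GI50, concentration required for 50% inhibition of growth.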 Calls of active or inactive are those of the source. No stated cut-off is given here; in the data, active = GI50 up to about 1.1 µM and inactive = higher.

Common to all, as to assay: NCI-60 cell line screen, 48 h
Test [1] has as its system 786-0.
In test [2] the test system is BT-549.
Test [3] concerns CCRF-CEM.
In test [4] the test system is HOP-62.
The subject of test [5] is HOP-92.
Test [6] deals with LOX IMVI.
In test [7] the test system is NCI-H226.
Test [8] relates to NCI-H23.
Test [9] has as its system NCI/ADR-RES.
For test [10], the system named is OVCAR-8.
Test [11] concerns RPMI-8226.
The test system of test [12] is RXF 393.
Test [13] has as its system SF-539.
The test system of test [14] is SK-MEL-2.
In test [15] the test system is SK-MEL-5.
Test [16] has as its system SN12C.
Test [17] deals with SW-620.
Test [18] concerns T47D.
The subject of test [19] is UACC-62.
For test [20], the system named is UO-31.

As to `CC1CCC2C(C)C3C(CC4C5CC=C6CC(OC7OC(CO)C(O)C(OC8OC(CO)C(O)C(O)C8O)C7OC7OC(C)C(O)C(O)C7O)CCC6(C)C5CCC43C)N2C1` (stereo not given), the GI50 in test [1] is 9.42 µM (inactive); in test [2], 16.5 µM (inactive); in test [3], 9.66 µM (inactive); in test [4], 17.3 µM (inactive); in [5], 17.5 µM (inactive); in test [6] it was 15 µM (inactive). The GI50 is 20.8 µM (inactive) in test [7]; 14.7 µM (inactive) in test [8]; 17.9 µM (inactive) in test [9]; 15 µM (inactive) in test [10]; 19.9 µM (inactive) in [11]; 10.2 µM (inactive) in test [12]. The GI50 in [13] is 8.83 µM (inactive); in [14], 19.5 µM (inactive); in test [15] it was 18.1 µM (inactive); in test [16], 11.1 µM (inactive); in [17], 15.6 µM (inactive); in test [18], 19.3 µM (inactive). Besides, the values for the GI50 in test [19] and in test [20] were 13.8 µM (inactive) and 6.37 µM (inactive), respectively.

For `CC(C)(C)OC(=O)c1ccc(NCc2cc(O)ccc2O)cc1`, the GI50 is 2.32 µM (inactive) in test [1]; 2 µM (inactive) in test [2]; 0.363 µM (active) in [3]; 8.97 µM (inactive) in test [4]; 1.34 µM (inactive) in [5]; 3.88 µM (inactive) in test [6]. For the same compound, the GI50 in test [7] is 2.22 µM (inactive); in test [8] it was 4.93 µM (inactive); in [9] it was 1.73 µM (inactive); in test [10], 2.13 µM (inactive); in [11] it was 0.617 µM (active); in [12], 1.36 µM (inactive). Also, the GI50 in [13] is 1.22 µM (inactive); in test [14] it was 4.34 µM (inactive); in test [15] it was 3.65 µM (inactive); in test [16], 1.27 µM (inactive); in test [17] it was 3.36 µM (inactive); in test [18] it was 1.61 µM (inactive). Besides, the results for the GI50 in test [19] and in [20] were 7.16 µM (inactive) and 1.22 µM (inactive), respectively.

`CCOC(=O)C#Cc1ccc(C#CC(=O)OCC)cc1`: the GI50 in test [1] is 4.35 µM (inactive); in [2] it was 3.95 µM (inactive); in test [3] it was 1.66 µM (inactive); in [4], 3.81 µM (inactive); in test [5], 5.69 µM (inactive); in [6] it was 3.03 µM (inactive). The GI50 is 3.3 µM (inactive) in test [7]; 3.69 µM (inactive) in test [8]; 6.43 µM (inactive) in [9]; 3.49 µM (inactive) in [10]; 2.56 µM (inactive) in test [11]; 2.62 µM (inactive) in test [12]. Also, the GI50 in test [13] was 10.6 µM (inactive); in [14] it was 0.421 µM (active); in test [15], 2.89 µM (inactive); in [16], 3.21 µM (inactive); in test [17], 3.15 µM (inactive); in test [18], > 21.2 µM (inactive). Also, the GI50 in test [19] was 3.37 µM (inactive); in [20], 3.43 µM (inactive).

In the case of `C[n+]1c2ccccc2n2c3ccccc3c(NCCCN3CCOCC3)c(C#N)c21`, the GI50 in test [1] was 1.04 µM (active); in test [2] it was 12 µM (inactive); in test [3], 8.17 µM (inactive); in test [4] it was 1.27 µM (inactive); in test [5], 62.8 µM (inactive); in test [6], 0.839 µM (active). Moreover, the GI50 in test [7] is 1.86 µM (inactive); in test [8] it was 1.29 µM (inactive); in test [9] it was > 41.4 µM (inactive); in [10] it was 0.843 µM (active); in test [11] it was 0.726 µM (active); in [12], 1.37 µM (inactive). Also, the GI50 is 0.556 µM (active) in test [13]; 1.91 µM (inactive) in test [14]; 2 µM (inactive) in test [15]; 0.597 µM (active) in test [16]; 0.849 µM (active) in [17]; 2.32 µM (inactive) in test [18]. For the same compound, the GI50 was 3.03 µM (inactive) in test [19] and 2.95 µM (inactive) in [20].

As to `COc1ccc2cc3c4cc5c(cc4cc[n+]3cc2c1OC)OCO5`, the GI50 is 10.2 µM (inactive) in [1]; 1.63 µM (inactive) in [2]; 6.43 µM (inactive) in test [3]; 5.6 µM (inactive) in [4]; 18.1 µM (inactive) in test [5]; 28.4 µM (inactive) in test [6]. Further, the GI50 is 26.4 µM (inactive) in [7]; 8.09 µM (inactive) in [8]; > 100 µM (inactive) in test [9]; 2.37 µM (inactive) in [10]; 8.13 µM (inactive) in [11]; 24.4 µM (inactive) in test [12]. Also, the GI50 is 11.4 µM (inactive) in [13]; 22.8 µM (inactive) in test [14]; 3.39 µM (inactive) in [15]; 2.52 µM (inactive) in test [16]; 5.27 µM (inactive) in test [17]; 17.4 µM (inactive) in test [18]. In addition, the GI50 was 12.3 µM (inactive) in test [19] and 36.3 µM (inactive) in [20].

`CN1C(=O)[C@H](c2c[nH]c3ccccc23)[C@H](c2c[nH]c3ccccc23)C1=O`: the GI50 is > 45.2 µM (inactive) in [1]; 19.1 µM (inactive) in [2]; 18.6 µM (inactive) in [3]; 27.7 µM (inactive) in [4]; > 35.9 µM (inactive) in test [5]; 17.7 µM (inactive) in test [6]. The GI50 is 27.2 µM (inactive) in [7]; 22.3 µM (inactive) in test [8]; 27 µM (inactive) in [9]; 31 µM (inactive) in [10]; 24.9 µM (inactive) in test [11]; 26.7 µM (inactive) in test [12]. Further, the GI50 in test [13] was 21.7 µM (inactive); in [14], 22.3 µM (inactive); in test [15], 22 µM (inactive); in test [16], 44.2 µM (inactive); in [17] it was 37.1 µM (inactive); in test [18], 87.9 µM (inactive). The GI50 in test [19] is 22.2 µM (inactive); in [20], 15.5 µM (inactive).

Consider `CC(C)C(OC(=O)c1ccc(NCC2=CC(=O)C=CC2=O)cc1)C(C)C`, for which the GI50 in [1] is 10.4 µM (inactive); in test [2], 3.52 µM (inactive); in test [3], 0.474 µM (active); in test [4], 18.3 µM (inactive); in test [5], 1.79 µM (inactive); in test [6] it was 5.15 µM (inactive). Further, the GI50 in test [7] is 4.24 µM (inactive); in test [8] it was 5.05 µM (inactive); in test [9] it was 4.3 µM (inactive); in test [10], 3.03 µM (inactive); in test [11], 3.15 µM (inactive); in test [12], 1.82 µM (inactive). Also, the GI50 in test [13] is 1.99 µM (inactive); in test [14] it was 11.6 µM (inactive); in test [15] it was 10.6 µM (inactive); in test [16] it was 9.16 µM (inactive); in test [17] it was 6.76 µM (inactive); in [18], 2.1 µM (inactive). The GI50 was 6.44 µM (inactive) in [19] and 1.82 µM (inactive) in [20].

As to `CC[C@@H](/C=C\CCC(=O)C[C@H](O)CCC=C(C)C)O[Si](C(C)C)(C(C)C)C(C)C`, the GI50 in test [1] is > 100 µM (inactive); in test [2] it was > 100 µM (inactive); in [3], 80.4 µM (inactive); in test [4], > 100 µM (inactive); in test [5], 81.7 µM (inactive); in test [6], 90.8 µM (inactive). The GI50 in test [7] is > 100 µM (inactive); in [8], > 100 µM (inactive); in test [9] it was > 100 µM (inactive); in test [10], > 100 µM (inactive); in test [11] it was 57.3 µM (inactive); in [12], 83.9 µM (inactive). In addition, the GI50 in test [13] was > 100 µM (inactive); in test [14] it was 42.9 µM (inactive); in test [15] it was 69 µM (inactive); in [16], > 100 µM (inactive); in test [17], > 100 µM (inactive); in test [18], 55.5 µM (inactive). For the same compound, the GI50 in test [19] and in [20] was > 100 µM (inactive) each time.

`Cc1cccc(/C=N/NC(=S)N2CCCCCC2)n1`: the GI50 is 0.0724 µM (active) in test [1]; 0.512 µM (active) in test [2]; < 0.01 µM (active) in test [3]; 0.219 µM (active) in [4]; 0.519 µM (active) in test [5]; 0.0989 µM (active) in [6]. The GI50 is 1.33 µM (inactive) in [7]; 0.299 µM (active) in test [8]; < 0.01 µM (active) in test [9]; 0.0142 µM (active) in [10]; < 0.01 µM (active) in [11]; 0.515 µM (active) in test [12]. Moreover, the GI50 is 0.205 µM (active) in [13]; 0.546 µM (active) in [14]; 0.0661 µM (active) in test [15]; 0.101 µM (active) in [16]; 0.0462 µM (active) in test [17]; < 0.01 µM (active) in test [18]. For the same compound, the GI50 is 0.163 µM (active) in [19] and 0.103 µM (active) in [20].

For the compound `N=C(N)N/N=C/c1c(-c2cc([N+](=O)[O-])c(Cl)cc2Cl)nc2n1CCS2`, the GI50 in test [1] is 32.4 µM (inactive); in test [2] it was 3.18 µM (inactive); in test [3], 2.84 µM (inactive); in [4] it was 42.4 µM (inactive); in [5], 20.7 µM (inactive); in [6] it was 6.35 µM (inactive). Further, the GI50 was 34.4 µM (inactive) in [7]; 5.33 µM (inactive) in [8]; > 100 µM (inactive) in test [9]; 26.5 µM (inactive) in test [10]; 7.6 µM (inactive) in test [11]; 41.5 µM (inactive) in test [12]. In addition, the GI50 in [13] was 42.5 µM (inactive); in test [14], 3.13 µM (inactive); in test [15] it was 29.9 µM (inactive); in [16], 23.4 µM (inactive); in [17] it was 3.97 µM (inactive); in test [18], 2.47 µM (inactive). Moreover, the GI50 in test [19] is 25.5 µM (inactive); in test [20] it was 18.2 µM (inactive).
